# Test results: patent publication US20150018546A1, “HETEROCYCLIC COMPOUND HAVING ANTI-HIV ACTIVITY” (TOYAMA CHEMICAL CO., LTD., priority 2012, published 2015)
# pIC50: −log10 of the molar value.
# System: HIV-1 (JRCSF)
# Test: Anti-HIV activity in MaRBLE cells infected with HIV-1 (JRCSF), luciferase readout
# Assay type: cell-based
# Details: Human immunodeficiency virus 1, 168 h; MaRBLE cells (human T lymphocyte-derived HPB-M(a)) infected with HIV-1 (JRCSF); 7 days culture; rate of viral proliferation by luciferase activity; read-out: Anti-HIV activity IC50
# How it was run: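 HPB-M(a)-derived MaRBLE cells carrying HIV-1 LTR-luciferase and CCR5, infected with HIV-1 JRCSF, 1×10^5 cells/well in RPMI1640/10% FCS, cultured 7 days at 37 °C. Luciferase read; proliferation % relative to compound-free wells minus uninfected background; IC50 by linear regression on log concentration.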
row,pIC50,Structure (SMILES)
1,7.36,"COc1ncccc1CNc1cc(=O)n(O)c2ncnc(C)c12 [Example 157, 8-hydroxy-5-(((2-methoxypyridin-3-yl)methyl)amino)-4-methylpyrido[2,3-d]pyrimidin-7(8H)-one]"
2,7.13,"COc1ccc(CNc2cc(=O)n(O)c3ncnc(C)c23)cn1 [Example 158, 8-hydroxy-5-(((2-methoxypyridin-5-yl)methyl)amino)-4-methylpyrido[2,3-d]pyrimidin-7(8H)-one]"
3,7.17,"Cc1ncnc2c1c(NCc1ccccc1OC(F)(F)F)cc(=O)n2O [Example 160, 8-hydroxy-4-methyl-5-((2-(trifluoromethoxy)benzyl)amino)pyrido[2,3-d]pyrimidin-7(8H)-one]"
4,6.74,"Cc1ncnc2c1c(NCCCc1cccnc1)cc(=O)n2O [Example 161, 8-hydroxy-4-methyl-5-((3-(pyridin-3-yl)propyl)amino)pyrido[2,3-d]pyrimidin-7(8H)-one]"
5,7.17,"Cc1ncnc2c1c(NCc1ccc(N)nc1)cc(=O)n2O [Example 162, 5-(((6-aminopyridin-3-yl)methyl)amino)-8-hydroxy-4-methylpyrido[2,3-d]pyrimidin-7(8H)-one]"
6,6.80,"Cc1ncnc2c1c(NC(C)c1ccccn1)cc(=O)n2O (stereo not drawn) [Example 165, 8-hydroxy-4-methyl-5-((1-(pyridin-2-yl)ethyl)amino)pyrido[2,3-d]pyrimidin-7(8H)-one]"
